The compounds below were run on bovine cultured trabecular meshwork cells (assay: Effects on morphology of bovine cultured trabecular meshwork cells (image analysis of cell area)). Conditions: Bos taurus, 3 h, drug treatment for three hours at 37° C., rate of change in area by image analysis, read-out: EC50 (concentration required to reduce the cell area of the trabecular meshwork cells by 50%).
Format: cell-based
Description: In order to study utility of the present compounds in glaucoma, effects of the present compounds on morphology of trabecular meshwork cells were investigated.
The possibility has been reported that drugs having effects of increasing aqueous humor outflow can be found by evaluating effects of drugs on morphology of cultured trabecular meshwork cells (Invest. Ophthalmol. Vis. Sci., 33, 2631-2640 (1992)). Accordingly, effects of the present compounds on morphology of bovine cultured trabecular meshwork cells were studied in the similar manner to the method described in the above-mentioned literature.
Morphological changes in bovine cultured trabecular meshwork cells by adding the present compounds were quantitatively evaluated by image analysis.
Bovine trabecular meshwork cells (passage number 2 to 5) cultured in a basal medium for mammalian cell culture D-MEM (Dulbecco's Modified Eagle Medium, manufactured by Gibco Co., Ltd.) containing fetal bovine serum (10%), amphotericin B (2.5 μg/ml) and gentamicin (50 μg/ml) were treated with a trypsin-EDTA solution (0.05% trypsin, 0.53 mM EDTA·4Na) 24 hours before the later drug treatment and seeded in a 24-well plate (10^4 cells/well). Twelve hours before the later drug treatment, the cells were washed with phosphate-buffered physiological saline, and then the medium was replaced by D-MEM containing amphotericin B (2.5 μg/ml) and gentamicin (50 μg/ml) (hereinafter referred to as “medium A”).
A test compound was dissolved in dimethyl sulfoxide (DMSO), and the medium A was added to the solution, followed by sterilizing the solution by filtration. The medium A was further added to the solution to dilute it at a prescribed concentration. […]
Photographed cell images were incorporated from the photographs into an image analysis system with a CCD camera (manufactured by HAMAMATU Co., Ltd.). Outlines of the incorporated cell images were traced, and areas were measured. […]

| EC50 [nM] | SMILES |
| --- | --- |
| 62000 | C=C(CC)C(=O)c1ccc(OCC(=O)O)c(Cl)c1Cl [Ethacrynic acid, reference compound] |
| 580 | C=C(C(=O)c1ccc(/C=C/CN(C)C)cc1)c1ccccc1 [Compound No. 4-1, 1-[4-[(E)-3-(Dimethylamino)-1-propenyl]phenyl]-2-phenyl-2-propen-1-one] |
| 840 | C=C(C(=O)c1ccc(CCCN(C)C)cc1)c1ccccc1 [Compound No. 4-2, 1-[4-[3-(Dimethylamino)propyl]phenyl]-2-phenyl-2-propen-1-one] |
